In patent publication US20260101887A1, “AN EMULSIFIABLE CONCENTRATE HAVING A LACTONE-BASED SOLVENT SYSTEM” (priority 2022, published 2026):

Key:
[1] = solvent in water, visual assessment of undissolved solvent
Method: Herein, various amounts of solvent and water were mixed with vigorous shaking in a glass-stoppered graduated cylinder or separating funnel, followed by standing for at least 30 min to enable separation. […] This method can be repeated with various amounts of solvent and water to enable the determination of the water-solubility of the solvent.

Abutilon theophrasti = experiment: Rate of penetration measured by Fluorescence Index enhancement (PS II inhibitor Na Bentazone into leaf); assay type: in vivo; design: scale not given here; conditions: Na B + E + S: 0.64% w/w Na Bentazone, 0.1% emulsifier, 0.9% solvent in CIPAC D water; two 5 μl droplets on leaf, 1 h
Text: PS II inhibitors effectively block the chlorophyll photosynthetic pathways within the leaf, resulting in enhanced fluorescence from the non-adsorbed incident light. The resulting emitted light can be measured at selected time intervals, enabling the determination of the rate of uptake of the PS II inhibitor and thus penetration effect of the selected adjuvant.
The following experiments were on the broadleaf weed Abutilon theophrasti (EPPO code ABUTH) at a Biologische Bundesanstalt, Bundessortenamt und Chemische Industrie (BBCH) growth stage 13 to 14.
The penetration experiments are conducted via the deposition of two droplets (5 μl) of the herbicide/emulsifier/lactone-based solvent formulation onto the leaf surface. The droplets are allowed to stand on the leaf surface for 1 h, after which a fluorescence image of the exposed leaf surface is recorded using the PAM chlorophyll fluorescence imaging system (Imaging PAM, Heinz-Walz GmbH, Germany). The resulting “Total Fluorescence” and “Fluorescence Area” are then quantified via the analysis of the recorded fluorescence image using image analysis software. This enables the calculation of the “Fluorescence Index”:
The “Fluorescence Index” is a therefore a direct measurement of the penetration of the active ingredient into the plant leaf and can thus be used to measure enhanced penetration via the use of selected adjuvants. Identical experiments are conducted on 7 further leaves using the same formulation to account for biological variability and experimental error.

Soya plants = experiment: Phytotoxicity determination on Soya; assay type: in vivo; conditions: 200 L/ha of 1% w/w emulsion (EC 90% w/w solvent, 10% w/w emulsifier); after 14 days; visual scale 0% to 100%
Method: Soya plants grown under standard greenhouse conditions in the growth stage 13 were treated with aqueous emulsions in a spray cabin. The resulting plant spray dosage represented an application rate of 200 L/ha of 1% w/w emulsion, corresponding to the application of 2 L/ha of the emulsifiable concentrate. […] The experimental period lasted 14 days, during which time the Soya plants were given optimum watering, nutrients, and light.
An assessment of 1 to 10% phytotoxicity is the limit of acceptable plant damage by farmers.

| Compound | Water solubility [1] [% w/w] | Fluorescence Index (Abutilon theophrasti) | phytotoxicity (Soya plants) [%] |
| --- | --- | --- | --- |
| CCCCCC1CCC(=O)O1 (centres unmarked) [Gamma-nonalactone] | 0.2 | 16.44 | 0 |
| CCCCCCCCC1CCCC(=O)O1 (centres unmarked) [Delta-tridecalactone] | <0.1 |  |  |
| CCCCCCCC1CCC(=O)O1 (centres unmarked) [Gamma-undecalactone] |  | 11.67 |  |
| CCCC(C)C1CCC(=O)O1 (centres unmarked) [Delta-methyl-gamma- octalactone, Delta-methyl-gamma-octalactone] | ≤0.2 |  |  |
| CCCCC1CCCC(=O)O1 (centres unmarked) [Delta-nonalactone] | 1.2 |  |  |
| CCCCCCCC1CCCC(=O)O1 (centres unmarked) [Delta-dodecalactone] | 0.07 | 15.21 |  |
| CCCCC1OC(=O)CC1C (stereo not drawn) [Beta-methyl-gamma-octalactone] | ≤0.2 |  |  |
| CCCC(C)C1OC(=O)CC1C (stereo not drawn) [Beta, delta-dimethyl- gamma-octalactone, Beta,delta-dimethyl-gamma-octalactone] | ≤0.2 |  |  |
| CCCCCCCCC1CCC(=O)O1 (centres unmarked) [Gamma-dodecalactone] | <0.02 |  |  |
| CC1CCC(=O)O1 (centres unmarked) [Gamma-valerolactone] | 100 | 4.85 |  |
| CCCCCCC1CCC(=O)O1 (centres unmarked) [Gamma-decalactone] | 0.1 | 14.13 |  |
| CCCCCCCCCC(=O)N(C)C [Dimethyl decanamide, reference compound] |  |  | 50 |
| CCC1CCC(=O)O1 (centres unmarked) [Gamma-hexalactone] | 8 | 6.11 |  |
| CCCCC1CCC(=O)O1 (centres unmarked) [Gamma-octalactone] | 0.8 | 8.80 |  |
| CCCCCC1CCCC(=O)O1 (centres unmarked) [Delta-decalactone] | 0.4 | 9.66 |  |
